Test results: PMC8645336, “Benchmarking a highly selective USP30 inhibitor for enhancement of mitophagy and pexophagy” (Life Science Alliance, 2021)

Legend:
[1] = biological target: T1, USP14 (+Proteasome-VS@Kd) (Homo sapiens, UniProt P54578); assay: biochemical; set-up: Ubiquigent DUB profiler selectivity panel, remaining enzyme activity as % of control; settings: read-out: % of control remaining
T1 construct: +Proteasome-VS@Kd
Protocol: (§1) Previous work has reported IC50 values for a series of benzosulphonamide inhibitors, of which all those <1 μM were screened for selectivity, in comparison to three other USP family members ([20], [21]). We have selected one of these compounds (CMPD-39, Fig 1A) for a more rigorous test of selectivity provided by the Ubiquigent DUB profiler screening platform comprising >40 DUBs. […] To test engagement of the inhibitor with USP30 applied to intact cells, we assayed competition with Ub-PA (Ub-propargylamide). Ub-PA covalently binds to the USP30 active site leading to a characteristic upshift on a SDS–PAGE gel ([22]). If a drug blocks access to the catalytic site, then the probe modification is blocked and the apparent molecular weight of USP30 shifts down accordingly. […] A robust proxy read-out for target engagement is the enhancement of TOMM20 ubiquitylation after mitochondrial depolarization ([6], [16]). This second assay indicates a maximal effect with 200 nM CMPD-39 applied to RPE1-YFP-PRKN cells (Fig 1D).  Figure 1. CMPD-39 is a selective USP30 inhibitor. (A) Chemical structure of CMPD-39. (B) DUB specificity screen (DUB profiler, Ubiquigent) with 1-100 μM CMPD-39. […] Samples were incubated with CMPD-39 for 2 h at the indicated concentrations, then incubated with HA-Ub-PA probe for 10 min at 37°C and immunoblotted as shown. Red arrow indicates unbound USP30; blue arrow represents probe bound USP30. (D) Inhibition of USP30 enhances the ubiquitylation of TOMM20 in YFP-PRKN over-expressing hTERT-RPE1 cells in a concentration dependent manner in response to mitophagy induction. Cells were treated for 1 h with DMSO or antimycin A and oligomycin A (AO; 1 μM each) in the absence or presence of CMPD-39 at the indicated concentrations, lysed, and analyzed by Western blotting. Black arrow indicates unmodified TOMM20, ubiquitylated species are indicated by red (mono-ubiquitylated) or blue arrow heads. […] Source data are available for this figure.

VCPIP = biological target: T2, VCPIP (Homo sapiens, UniProt Q96JH7); assay: biochemical; set-up: Ubiquigent DUB profiler selectivity panel, remaining enzyme activity as % of control; settings: read-out: % of control remaining
T2 construct: gene VCPIP1
T2 sequence (Q96JH7 1-1222): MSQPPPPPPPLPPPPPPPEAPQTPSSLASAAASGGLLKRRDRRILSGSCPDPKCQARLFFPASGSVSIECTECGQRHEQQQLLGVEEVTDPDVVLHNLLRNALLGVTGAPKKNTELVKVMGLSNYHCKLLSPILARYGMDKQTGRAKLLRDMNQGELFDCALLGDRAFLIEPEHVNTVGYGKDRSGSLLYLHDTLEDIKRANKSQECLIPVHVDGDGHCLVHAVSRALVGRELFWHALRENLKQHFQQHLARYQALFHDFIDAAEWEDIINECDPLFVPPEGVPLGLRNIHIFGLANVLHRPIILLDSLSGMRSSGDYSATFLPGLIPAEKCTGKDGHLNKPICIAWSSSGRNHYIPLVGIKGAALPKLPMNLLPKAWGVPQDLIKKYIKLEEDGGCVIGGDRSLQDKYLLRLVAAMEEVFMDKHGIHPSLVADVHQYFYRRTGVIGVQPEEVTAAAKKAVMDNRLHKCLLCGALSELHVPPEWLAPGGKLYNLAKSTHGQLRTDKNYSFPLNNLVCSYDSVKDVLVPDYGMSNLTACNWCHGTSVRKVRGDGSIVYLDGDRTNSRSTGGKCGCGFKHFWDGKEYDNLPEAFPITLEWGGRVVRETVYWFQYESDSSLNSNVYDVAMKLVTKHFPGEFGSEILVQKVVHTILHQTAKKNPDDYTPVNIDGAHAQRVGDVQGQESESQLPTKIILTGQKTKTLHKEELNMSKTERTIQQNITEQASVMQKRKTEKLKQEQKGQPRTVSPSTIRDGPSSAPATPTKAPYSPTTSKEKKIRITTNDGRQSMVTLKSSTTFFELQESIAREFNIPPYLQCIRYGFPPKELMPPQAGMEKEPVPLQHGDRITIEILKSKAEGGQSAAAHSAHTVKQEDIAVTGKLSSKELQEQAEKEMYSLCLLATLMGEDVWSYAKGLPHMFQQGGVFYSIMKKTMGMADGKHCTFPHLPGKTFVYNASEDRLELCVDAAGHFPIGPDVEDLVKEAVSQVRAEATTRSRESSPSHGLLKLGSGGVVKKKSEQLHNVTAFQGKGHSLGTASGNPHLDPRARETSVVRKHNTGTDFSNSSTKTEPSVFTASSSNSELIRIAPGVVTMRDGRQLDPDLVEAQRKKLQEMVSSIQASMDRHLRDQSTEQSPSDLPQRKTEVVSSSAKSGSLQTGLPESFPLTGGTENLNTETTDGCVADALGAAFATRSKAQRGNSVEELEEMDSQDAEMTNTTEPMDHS
Protocol: as §1

T1 sequence (P54578 whole entry): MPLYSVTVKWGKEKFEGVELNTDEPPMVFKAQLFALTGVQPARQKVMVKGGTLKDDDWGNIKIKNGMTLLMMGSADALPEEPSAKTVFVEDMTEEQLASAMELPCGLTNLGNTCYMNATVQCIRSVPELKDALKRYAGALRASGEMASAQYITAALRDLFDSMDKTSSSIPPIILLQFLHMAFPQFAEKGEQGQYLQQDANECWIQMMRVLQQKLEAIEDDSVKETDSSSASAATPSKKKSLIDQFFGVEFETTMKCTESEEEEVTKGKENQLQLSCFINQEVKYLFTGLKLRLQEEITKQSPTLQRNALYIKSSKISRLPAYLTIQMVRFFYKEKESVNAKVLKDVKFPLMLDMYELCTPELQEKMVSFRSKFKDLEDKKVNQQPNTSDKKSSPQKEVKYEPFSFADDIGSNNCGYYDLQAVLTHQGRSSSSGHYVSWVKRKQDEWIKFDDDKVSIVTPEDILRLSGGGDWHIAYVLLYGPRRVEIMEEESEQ

In the case of CC(C)(C)NS(=O)(=O)c1ccc(NC(=O)[C@H](Cc2ccccc2)NC(=O)c2ccc(F)cc2)cc1 [compound 39, CMPD-39], the remaining activity at 1 µM [1] is reported as 107%, the remaining activity at 10 µM [1] is reported as 100% and the remaining activity at 100 µM [1] is reported as 96.1%. It also gave a remaining activity at 1 µM (VCPIP) of 109%, a remaining activity at 10 µM (VCPIP) of 96.5% and a remaining activity at 100 µM (VCPIP) of 95.6%.
